How the values were obtained:
[1] = tested on: Na+-dependent Cl-/HCO3 exchanger (NCBE); assay: Inhibition of the Na+-dependent Cl-/HCO3- exchanger (NCBE) in human endothelial cells (BCECF fluorescence, FLIPR, pHi recovery); type: cell-based; settings: inhibitor concentration of 10 μM; human endothelial cells (ECV-304); in presence of 50 μM HOE 642
Method: Inhibition of the Na^+-dependent Cl^−/HCO3 exchanger (NCBE) in human endothelial cells
Human endothelial cells (ECV-304) were detached from culture flasks with the aid of trypsin/EDTA buffer (0.05/0.02% in phosphate buffer) and, after centrifugation (100 g, 5 min), taken up in a buffered salt solution (mmol/l: 115 NaCl, 20 NH4Cl, 5 KCl, 1 CaCl2, 1 MgSO4, 20 N-(2-hydroxyethyl)piperazine-N=-2-ethanesulfonic acid (HEPES), 5 glucose and 1, g/l of bovine serum albumin; pH 7.4). This cell suspension was incubated at 37° C. for 20 min with 5 μM BCECF acetoxymethyl ester. The cells were then washed and resuspended in a sodium- and bicarbonate-free buffer solution (mmol/l: 5 HEPES, 133.8 choline chloride, 4.7 KCl, 1.25 MgCl2, 0.97 K2HPO4, 0.23 KH2PO4, 5 glucose; pH 7.4).
For the subsequent fluorescence measurement in the FLIPR (Fluorescent Imaging Plate Reader), 100 μl of this cell suspension in each case containing 20,000 cells were added by pipette per well of a 96-well microtiter plate and this microtiter plate was centrifuged (100 g, 5 min). In the FLIPR, 100 μl of buffer solution in each case were then removed from a further prepared microtiter plate and added by pipette to each of the 96 wells of the measuring plate. In this case, for a 100% control, i.e. a recovery of the intracellular pH (pHi) by means of the NCBE, a bicarbonate- and sodium-containing buffer solution (mmol/l: 5 HEPES, 93.8 NaCl, 40 NaHCO3, 4.7 KCl, 1.25 CaCl2, 1.25 MgCl2, 0.97 Na2HPO4, 0.23 NaH2PO4, 5 glucose; pH 7.4) which contained 50 μM HOE 642 was used. […]
After addition of the buffer solutions to the dye-loaded acidified cells situated in the measuring plate, the increase in the fluorescence intensity which corresponded to an increase in the pHi was determined in each well of the microtiter plate. The kinetics were in this case recorded at 35° C. over a period of 2 minutes.
The increase in the fluorescence intensities for different concentrations of the compounds according to the invention was related to the two controls and from this the inhibitory action of the substances was determined.

| Structure (SMILES) | Residual activity of the NCBE [1] | melting point |
| --- | --- | --- |
| N#CNS(=O)(=O)c1cccc(Cc2cccc(Cn3c(-c4ccccc4)nc(Cl)c3C=O)c2)c1 [Example 3, 2-Phenyl-4-formyl-5-chloro-3-[3-(3′-cyanoaminosulfonylbenzyl)benzyl]-3H-imidazole] | 24.3% | 75 °C |
| CCCCc1nc(SC)c(C(=O)OCC)n1Cc1cccc(Cc2cccc(S(=O)(=O)NC#N)c2)c1 [Example 2, Ethyl 2-butyl-5-methylsulfanyl-3-[3-(3′-cyanoaminosulfonylbenzyl)benzyl]-3H-imidazole-4-carboxylate] | 35.2% | 172 to 174 °C |
| CCCCc1nc(SC)c(C(=O)OCC)n1Cc1ccc(Cc2cccc(S(=O)(=O)NC#N)c2)cc1 [Example 1, Ethyl 2-butyl-5-methylsulfanyl-3-[4-(3′-cyanoaminosulfonylbenzyl)benzyl]-3H-imidazole-4-carboxylate] | 11.1% | 62 °C |
